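1) Cells in 96-well plates. 2) Compound, 48 h, 5 concentrations. 3) Linear interpolation between surrounding doses. 4) Unreached endpoint = highest concentration. Here, GI50 denotes the concentration required for 50% inhibition of growth.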 Active and inactive are the calls of the source. No stated cut-off is given here; in the data, active = GI50 up to about 1.1 µM and inactive = higher.
Legend:
Assay in all cases: inhibition of tumour cell growth, NCI panel, 48 h
786-0 = test system: 786-0
A549 = test system: A549
ACHN = test system: ACHN
BT-549 = test system: BT-549
CAKI-1 = test system: CAKI-1
COLO 205 = test system: COLO 205
DU-145 = test system: DU-145
EKVX = test system: EKVX
HCC 2998 = test system: HCC 2998
HCT-116 = test system: HCT-116
HCT-15 = test system: HCT-15
HL-60 = test system: HL-60
HOP-62 = test system: HOP-62
HOP-92 = test system: HOP-92
HT-29 = test system: HT-29
Hs-578T = test system: Hs-578T
IGROV-1 = test system: IGROV-1
K562 = test system: K562
KM12 = test system: KM12
LOX IMVI = test system: LOX IMVI
M14 = test system: M14
MCF7 = test system: MCF7
MDA-MB-231 = test system: MDA-MB-231
MDA-MB-435 = test system: MDA-MB-435
MDA-N = test system: MDA-N
MOLT-4 = test system: MOLT-4
Malme-3M = test system: Malme-3M
NCI-H226 = test system: NCI-H226
NCI-H23 = test system: NCI-H23
NCI-H460 = test system: NCI-H460
NCI-H522 = test system: NCI-H522
NCI/ADR-RES = test system: NCI/ADR-RES
OVCAR-3 = test system: OVCAR-3
OVCAR-4 = test system: OVCAR-4
OVCAR-5 = test system: OVCAR-5
OVCAR-8 = test system: OVCAR-8
PC-3 = test system: PC-3
RPMI-8226 = test system: RPMI-8226
RXF 393 = test system: RXF 393
SF-268 = test system: SF-268
SF-295 = test system: SF-295
SF-539 = test system: SF-539
SK-MEL-28 = test system: SK-MEL-28
SK-MEL-5 = test system: SK-MEL-5
SK-OV-3 = test system: SK-OV-3
SN12C = test system: SN12C
SNB-19 = test system: SNB-19
SNB-75 = test system: SNB-75
SR = test system: SR
SW-620 = test system: SW-620
T47D = test system: T47D
TK-10 = test system: TK-10
U-251 = test system: U-251
UACC-62 = test system: UACC-62
UO-31 = test system: UO-31

**Q.** `COc1ccc(-c2cc(-c3ccc(C)cc3)n(C3OC(COC(C)=O)C(OC(C)=O)C(OC(C)=O)C3OC(C)=O)c(=S)c2C#N)cc1` (stereo not given) was tested. Which GI50 (786-0) did it give?
**A.** > 100 µM (inactive)

**Q.** And the GI50 (A549)?
**A.** > 100 µM (inactive)

**Q.** And the GI50 (ACHN)?
**A.** > 100 µM (inactive)

**Q.** What about the GI50 (BT-549) of the same compound?
**A.** > 100 µM (inactive)

**Q.** And the GI50 (CAKI-1)?
**A.** > 100 µM (inactive)

**Q.** What about the GI50 (COLO 205) of the same compound?
**A.** > 100 µM (inactive)

**Q.** What about the GI50 (DU-145) of the same compound?
**A.** > 100 µM (inactive)

**Q.** What about the GI50 (EKVX) of the same compound?
**A.** > 100 µM (inactive)

**Q.** What about the GI50 (HCC 2998) of the same compound?
**A.** > 100 µM (inactive)

**Q.** What about the GI50 (HCT-116) of the same compound?
**A.** > 100 µM (inactive)

**Q.** What about the GI50 (HCT-15) of the same compound?
**A.** > 100 µM

**Q.** What about the GI50 (HL-60) of the same compound?
**A.** 49.3 µM (inactive)

**Q.** What about the GI50 (HOP-62) of the same compound?
**A.** 37.1 µM (inactive)

**Q.** And the GI50 (HOP-92)?
**A.** > 100 µM (inactive)

**Q.** What about the GI50 (HT-29) of the same compound?
**A.** > 100 µM (inactive)

**Q.** And the GI50 (Hs-578T)?
**A.** 36.6 µM (inactive)

**Q.** What about the GI50 (IGROV-1) of the same compound?
**A.** > 100 µM (inactive)

**Q.** And the GI50 (K562)?
**A.** > 100 µM (inactive)

**Q.** What about the GI50 (KM12) of the same compound?
**A.** > 100 µM (inactive)

**Q.** And the GI50 (LOX IMVI)?
**A.** > 100 µM (inactive)

**Q.** What about the GI50 (M14) of the same compound?
**A.** > 100 µM (inactive)

**Q.** What about the GI50 (MCF7) of the same compound?
**A.** > 100 µM (inactive)

**Q.** What about the GI50 (MDA-MB-231) of the same compound?
**A.** > 100 µM (inactive)

**Q.** What about the GI50 (MDA-MB-435) of the same compound?
**A.** > 100 µM (inactive)

**Q.** What about the GI50 (MDA-N) of the same compound?
**A.** > 100 µM (inactive)

**Q.** What about the GI50 (MOLT-4) of the same compound?
**A.** > 100 µM (inactive)

**Q.** And the GI50 (Malme-3M)?
**A.** > 100 µM (inactive)

**Q.** What about the GI50 (NCI-H226) of the same compound?
**A.** > 100 µM (inactive)

**Q.** And the GI50 (NCI-H23)?
**A.** > 100 µM (inactive)

**Q.** And the GI50 (NCI-H460)?
**A.** > 100 µM (inactive)

**Q.** And the GI50 (NCI-H522)?
**A.** > 100 µM (inactive)

**Q.** What about the GI50 (NCI/ADR-RES) of the same compound?
**A.** > 100 µM (inactive)

**Q.** And the GI50 (OVCAR-3)?
**A.** > 100 µM (inactive)

**Q.** What about the GI50 (OVCAR-4) of the same compound?
**A.** 29.2 µM (inactive)

**Q.** And the GI50 (OVCAR-5)?
**A.** > 100 µM (inactive)

**Q.** And the GI50 (OVCAR-8)?
**A.** > 100 µM (inactive)

**Q.** And the GI50 (PC-3)?
**A.** > 100 µM (inactive)

**Q.** What about the GI50 (RPMI-8226) of the same compound?
**A.** > 100 µM (inactive)

**Q.** And the GI50 (RXF 393)?
**A.** 79.4 µM (inactive)

**Q.** What about the GI50 (SF-268) of the same compound?
**A.** > 100 µM (inactive)

**Q.** And the GI50 (SF-295)?
**A.** > 100 µM (inactive)

**Q.** And the GI50 (SF-539)?
**A.** 57.5 µM (inactive)

**Q.** And the GI50 (SK-MEL-28)?
**A.** > 100 µM (inactive)

**Q.** What about the GI50 (SK-MEL-5) of the same compound?
**A.** > 100 µM (inactive)

**Q.** What about the GI50 (SK-OV-3) of the same compound?
**A.** > 100 µM (inactive)

**Q.** And the GI50 (SN12C)?
**A.** > 100 µM (inactive)

**Q.** And the GI50 (SNB-19)?
**A.** 90.6 µM (inactive)

**Q.** What about the GI50 (SNB-75) of the same compound?
**A.** 27 µM (inactive)

**Q.** What about the GI50 (SR) of the same compound?
**A.** > 100 µM (inactive)

**Q.** And the GI50 (SW-620)?
**A.** > 100 µM (inactive)

**Q.** And the GI50 (T47D)?
**A.** > 100 µM (inactive)

**Q.** What about the GI50 (TK-10) of the same compound?
**A.** > 100 µM (inactive)

**Q.** And the GI50 (U-251)?
**A.** 50.1 µM (inactive)

**Q.** And the GI50 (UACC-62)?
**A.** > 100 µM (inactive)

**Q.** And the GI50 (UO-31)?
**A.** > 100 µM (inactive)

Reference: ChEMBL document CHEMBL1201862, “PubChem BioAssay data set” (2004)
